Assays:
Format in all cases: cell-based
[1] = test system: OCI-LY3 cells; assay: Resazurin cell viability (proliferation) assay in OCI-LY3 DLBCL cells; conditions: Homo sapiens, OCI-LY3 cells (BTK independent), 72 h, 50% growth inhibition vs vehicle, read-out: OCI-LY3 Prol GI50
Experimental: (§1) Compounds of the invention were tested in the following cellular assays. The terms in Table 2 are defined as follows: DC50 refers to the concentration at which 50% maximal degradation was observed; deg Amax is the extent of degradation and the value refers to the % protein remaining at the concentration at which maximum degradation is seen; ProI GI50 refers to the proliferation data and defines the concentration at which 50% growth inhibition was observed compared to the vehicle treated control at the end of the incubation time. TMD8 cells are BTK dependent and OCI-LY3 cells are BTK independent.
(§2) Cell Viability Assay in DLBCL (Diffuse Large B-Cell Lymphoma) Cells:
(§3) The effect of the BTK compounds on cell proliferation was measured by a Resazurin (Sigma, #R7017) based cell viability assay. TMD8 (BTK compound sensitive) and OCI-LY3 (BTK compound insensitive) cells were incubated for 72 h at 37° C. and 5% CO2 with the corresponding compound, Resazurin is a non-toxic, cell-permeable substrate that is virtually non-fluorescent. Upon entering living cells, Resazurin (Sigma, #R7017) is reduced to highly fluorescent Resorufin. The metabolic activity was assessed by measuring the fluorescence signal (ex. 530 nm; em. 600 nm).
(§4) TMD8 and OCI-Ly3 cells were seeded at day 0 in triplicates at a cell density of 1×10^4 cells per 150 μl/well in a 96-well plate (Costar #3904). Additional plates were prepared, in order to assess the basal metabolic activity of both cell lines at the beginning of the experiment. For these reference plates, Resazurin (Sigma, #R7017) was added to a final concentration of 13 μg/ml 3 h post seeding and was incubated for 2 h at 37° C. and 5% CO2. Following incubation, the fluorescent signal intensity of the 96-well plates was measured on a Mithras LB940 multimode plate reader at 530/600 nm (Berthold Technologies, Germanyl).
(§5) In parallel, 3 h post-seeding, test-plates were treated with compound at various concentrations, or with vehicle (DMSO) alone for 3 days. The compound addition to the plates was performed by using a HP D300 digital dispenser (TECAN, Switzerland). The compounds were tested in triplicate, 8-point serial dilution (1:4), with a start concentration of 10 μM for OCI-LY3 and 1 μM for the TMD8 cells, respectively. To assess the relative proliferation of the cells, Resazurin was added to each well directly to the medium to a final concentration of 13 μg/ml. The plates were incubated for 2 h at 37° C. and 5% CO2 to result in a 72 h endpoint. Following incubation, the fluorescent signal intensity of the 96-well plates were measured on a Mithras LB940 multimode plate reader at 530/600 nm (Berthold Technologies, Germanyl). The formation of Resorufin dye directly correlates with the number of metabolically active cells. For each triplicate treatment the mean and standard deviation were calculated and analyzed via curve fitting software to determine the respective compound concentration resulting in 50% growth inhibition (GI50) values. For each compound GI50 values were typically determined from at least 2 entirely independent experiments.
OCI-LY3 cells were acquired through a license agreement with University Health Network, Toronto, Canada. Cells are cultivated in RPM11640 media (Gibco, #61870-010, lot. 1894759), supplemented with 10% FCS (HyClone, GE #SH30066.03, lot AB217603), 2 mM L-Glutamine (BioConcept, #5-10K50-H, lot. LA03467P), 1 mM Sodium Pyruvate (BioConcept, #5-60F00-H, lot. LB10510P), 10 mM HEPES (Gibco, #15630-056, lot. 1854074), 1% Pen/Strep (BioConcept, #4-01F00-H, lot. LB04235P).

[2] = test system: TMD8 cells; assay: Resazurin cell viability (proliferation) assay in TMD8 DLBCL cells; conditions: Homo sapiens, TMD8 cells (BTK dependent), 72 h, 50% growth inhibition vs vehicle, read-out: TMD8 Prol GI50
Experimental: as §1, §2, §3, §4, §5
TMD8 cells were acquired through a license agreement with Tokyo Medical and Dental University, Japan. Cells are cultivated in MEM Alpha (BioConcept, #1-23F01-1, lot. LB04262P) supplemented with 10% FCS (HyClone, GE #SH30066.03, lot AB3217603), 2 mM L-Glutamine (BioConcept, #5-10K50-H, lot. LA03467P), 1% Pen/Strep (BioConcept, #4-01F00-H, lot. LB04235P).

[3] = target: T1, BTK-GFP (Homo sapiens, UniProt Q06187+Q96SW2); assay: BTK-GFP protein abundance flow cytometry assay in HEK293A cells; conditions: HEK293A BTK-GFP-iresRFP cells, 24 h; for DC50: GFP signal by flow cytometry, concentration at which 50% maximal degradation was observed; for BTK deg Amax: % protein remaining at the concentration at which maximum degradation is seen
T1 construct: expressed in transfected cells; host or cells: HEK293A (Invitrogen R70507), lentiviral transduction with pLenti6-BTK-GFP-Ires-RFP, blasticidin selection
Experimental: as §1
BTK-GFP and IKZF3-GFP protein abundance flow cytometry assay in HEK293A cells:
Degradation of BTK or IKZF3 was measured in HEK293A cells (Invitrogen R70507) expressing either BTK-GFP and RFP or IKZF3-GFP and RFP from a stably integrated bicistronic BTK-GFP-iresRFP or IKZF3-GFP-iresRFP construct, respectively. Reduction of the GFP signal measured by flow cytometry served as readout for BTK or IKZF3 degradation after degrader treatment.
i) Cloning of the pLenti6-BTK-GFP-1Res-RFP and IKZF3-GFP-Ires-RFP Sensor Vectors
The bicistronic BTK-GFP-iresRFP construct is based on a pLenti6-DEST vector backbone where GFP was introduced into the unique Xho1 site downstream of the destination cassette (DEST) and RFP was cloned behind an internal ribosomal entry site (Ires).
In detail, the sensor construct was engineered by replacing NanoLuciferase (NLuc) by GFP and FireFly luciferase (FF) by RFP from pLenti6-DEST-NLuc-Ires-FF.
The pLenti6-DEST-NLuc-Ires-FF sensor construct was cloned by replacing eGFP from pLenti6-DEST-ires-eGFP with a synthesized stuffer element (encoding Ires-FF with FF flanked by two Nhe1 restriction sites) using blunt end cloning replacing Ires-eGFP between the two PmII. To enable C-terminal tagging with NanoLuciferase (NLuc), NLuc was amplified from pNL1.1 (Promega #N1001) using linker primers with Xho1 sites for ligating into linearized pLenti6-DEST-Ires-FF using Xho1 digest resulting in the construct pLenti6-DEST-NLuc-Ires-FF.
The pLenti6-DEST-NLuc-Ires-FF served as base vector for cloning pLenti6-DEST-GFP-Ires-RFP using Gibson assembly to replace FF with RFP and NLuc with GFP. In a first round FF was replaced by RFP by amplifying RFP from a template using the following Gibson assembly linker primers (Gibson-Nhe1 RFPfw, […]gctagc[…] (SEQ ID NO: 1); Gibson-Nhe1 RFP-Stoprev, […]ctagc[…] (SEQ ID NO: 2)) to clone into pLenti6-DEST-NLuc-Ires-FF digested with Nhe1 and gel-purified to remove the FF fragment. The resulting pLenti6-DEST-NLuc-Ires-RFP vector served as the template to replace NLuc with GFP by amplifying GFP from a template using following Gibson assembly linker primers (Gibson-Xho1 GFPfw, […]c[…] (SEQ ID NO: 3); Gibson-Xho1 GFP-Stoprev, […] (SEQ ID NO: 4)) to clone into pLenti6-DEST-NLuc-Ires-RFP digested with Xho1 and gel-purified to remove the NLuc fragment. All Gibson assembly reactions were performed with Gibson assembly Master Mix (New England Biolabs NEB E261 IL) according to manufacturer's manual, resulting in the destination vector pLenti6-DEST-GFP-Ires-RFP to allow Gateway cloning. To enable gateway cloning and C-terminal GFP tagging of BTK, the BTK open reading frame (ORF) was first shuttled from a pcDNA-DEST40-BTK vector (Invitrogen library ID INV_20090504v1) into pDONR221 (Invitrogen 12536-017) vector using a gateway BP reaction according to the manufacturer's manual (Invitrogen 11789-013) resulting in the novel construct pENTR221-BTK. For C-terminal tagging the STOP codon was mutated to a leucine performing a mutagenesis reaction with the following primers (pENTR221-BTK Quikchange STOP-Leu fw, gtcatggatgaagaatccTTGaacccagctttcttgtac; pENTR221-BTK Quikchange STOP-Leu REVC, gtacaagaaagctgggttCAAggattcttcatccatgac) using the QuikChange Lightning mutagenesis kit (Agilent Technologies #210518) according to the manufacturer's manual, resulting in pENTR221-BTK (STOP-Leu). […]

T1 sequence (Q06187 whole entry): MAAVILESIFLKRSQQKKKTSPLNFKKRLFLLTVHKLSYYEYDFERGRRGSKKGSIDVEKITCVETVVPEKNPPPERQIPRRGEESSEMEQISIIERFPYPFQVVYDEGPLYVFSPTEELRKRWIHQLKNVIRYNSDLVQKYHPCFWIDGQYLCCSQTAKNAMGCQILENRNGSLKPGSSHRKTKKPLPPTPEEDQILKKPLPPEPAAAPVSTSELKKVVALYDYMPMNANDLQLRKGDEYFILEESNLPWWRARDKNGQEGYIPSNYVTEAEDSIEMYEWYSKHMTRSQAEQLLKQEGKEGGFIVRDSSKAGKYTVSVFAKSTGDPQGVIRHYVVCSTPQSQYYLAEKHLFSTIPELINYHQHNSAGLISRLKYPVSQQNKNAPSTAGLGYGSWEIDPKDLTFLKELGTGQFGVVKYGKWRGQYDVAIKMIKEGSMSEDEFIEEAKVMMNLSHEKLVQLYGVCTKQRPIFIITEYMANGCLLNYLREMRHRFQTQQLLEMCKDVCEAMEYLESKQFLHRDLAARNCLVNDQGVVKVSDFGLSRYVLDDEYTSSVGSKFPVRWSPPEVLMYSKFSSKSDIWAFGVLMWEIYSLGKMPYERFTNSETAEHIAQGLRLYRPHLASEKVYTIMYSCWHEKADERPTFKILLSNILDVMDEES
T1 sequence (Q96SW2 whole entry): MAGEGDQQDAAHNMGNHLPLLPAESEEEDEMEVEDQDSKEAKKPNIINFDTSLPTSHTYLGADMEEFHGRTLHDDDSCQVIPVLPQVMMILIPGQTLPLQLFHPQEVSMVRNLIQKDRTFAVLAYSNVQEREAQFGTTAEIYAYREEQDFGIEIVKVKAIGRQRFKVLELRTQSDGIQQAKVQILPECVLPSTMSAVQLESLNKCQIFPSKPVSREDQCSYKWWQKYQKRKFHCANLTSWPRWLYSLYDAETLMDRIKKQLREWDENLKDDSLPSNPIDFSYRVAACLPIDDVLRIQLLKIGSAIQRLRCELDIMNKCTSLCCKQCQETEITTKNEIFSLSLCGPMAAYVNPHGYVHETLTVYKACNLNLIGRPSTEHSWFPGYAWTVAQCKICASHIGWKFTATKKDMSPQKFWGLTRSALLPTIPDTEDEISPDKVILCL
T1 sequence (Q16531 whole entry partner): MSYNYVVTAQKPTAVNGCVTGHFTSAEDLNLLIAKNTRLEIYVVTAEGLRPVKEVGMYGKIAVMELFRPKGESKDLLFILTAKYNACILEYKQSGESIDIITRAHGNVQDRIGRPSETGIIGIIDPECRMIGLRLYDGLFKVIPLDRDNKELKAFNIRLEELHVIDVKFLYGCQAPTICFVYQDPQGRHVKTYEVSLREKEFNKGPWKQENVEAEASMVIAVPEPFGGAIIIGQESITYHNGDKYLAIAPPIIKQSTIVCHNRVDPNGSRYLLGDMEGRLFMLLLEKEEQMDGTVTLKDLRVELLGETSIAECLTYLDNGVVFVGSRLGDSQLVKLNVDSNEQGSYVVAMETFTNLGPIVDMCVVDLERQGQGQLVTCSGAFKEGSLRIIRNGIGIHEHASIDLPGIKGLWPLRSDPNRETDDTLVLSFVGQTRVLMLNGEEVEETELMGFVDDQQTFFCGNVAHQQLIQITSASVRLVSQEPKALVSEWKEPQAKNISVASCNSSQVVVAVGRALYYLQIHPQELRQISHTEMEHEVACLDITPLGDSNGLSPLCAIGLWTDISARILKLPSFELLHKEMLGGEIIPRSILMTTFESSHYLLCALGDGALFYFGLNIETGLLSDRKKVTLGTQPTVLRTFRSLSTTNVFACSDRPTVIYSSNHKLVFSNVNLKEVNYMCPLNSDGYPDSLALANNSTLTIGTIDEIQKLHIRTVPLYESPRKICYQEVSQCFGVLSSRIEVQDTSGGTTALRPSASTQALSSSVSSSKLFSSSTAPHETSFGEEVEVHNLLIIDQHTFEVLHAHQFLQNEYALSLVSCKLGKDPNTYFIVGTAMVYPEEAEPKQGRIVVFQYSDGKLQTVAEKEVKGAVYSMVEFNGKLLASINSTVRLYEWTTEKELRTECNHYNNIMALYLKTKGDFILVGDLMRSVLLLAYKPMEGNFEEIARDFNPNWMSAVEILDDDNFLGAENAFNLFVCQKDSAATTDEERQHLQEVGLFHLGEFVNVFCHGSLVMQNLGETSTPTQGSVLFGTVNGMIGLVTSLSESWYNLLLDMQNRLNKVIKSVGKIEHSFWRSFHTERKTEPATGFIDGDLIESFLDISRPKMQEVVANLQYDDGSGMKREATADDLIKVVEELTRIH

| SMILES | GI50 [1] | GI50 [2] | DC50 [3] | BTK deg Amax [3] |
| --- | --- | --- | --- | --- |
| COc1ccc(C(=O)N2CCN(CCN3CCC(OCc4ccc(-c5cc6c(-c7cc(F)cc(NC(=O)c8ccc(C(C)(C)O)cc8F)c7C)ncnc6[nH]5)cc4)CC3)CC2)cc1N1CCC(=O)NC1=O [Compound 21, N-(3-(6-(4-(((1-(2-(4-(3-(2,4-dioxotetrahydropyrimidin-1(2H)-yl)-4-methoxybenzoyl)piperazin-1-yl)ethyl)piperidin-4-yl)oxyl)methyl)phenyl)-7H-pyrrolo[2,3-d]pyrimidin-4-yl)-5-fluoro-2-methylphenyl)-2-fluoro-4-(2-hydroxypropan-2-yl)benzamide] | 6830 nM | 0.6 nM | 1.8 nM | 3.7% |
| COc1ccc(C(=O)NCCCCN2CCN(Cc3ccc(-c4cc5c(-c6cc(F)cc(NC(=O)c7ccc(C(C)(C)O)cc7F)c6C)ncnc5[nH]4)cc3)CC2)cc1N1CCC(=O)NC1=O [Compound 26, N-(3-(6-(4-((4-(4-(3-(2,4-Dioxotetrahydropyrimidin-1(2H)-yl)-4-methoxybenzamido)butyl)piperazin-1-yl)methyl)phenyl)-7H-pyrrolo[2,3-d]pyrimidin-4-yl)-5-fluoro-2-methylphenyl)-2-fluoro-4-(2-hydroxypropan-2-yl)benzamide] | 4760 nM | 1.92 nM | 25 nM | 4.3% |
| Cc1cc(F)c(C(=O)N(C)CCCCCNCc2ccc(-c3cc4c(-c5cc(F)cc(NC(=O)c6ccc(C(C)(C)O)cc6F)c5C)ncnc4[nH]3)cc2)cc1N1CCC(=O)NC1=O [Compound 28, 5-(2,4-Dioxotetrahydropyrimidin-1(2H)-yl)-2-fluoro-N-(5-((4-(4-(5-fluoro-3-(2-fluoro-4-(2-hydroxypropan-2-yl)benzamido)-2-methylphenyl)-7H-pyrrolo[2,3-d]pyrimidin-6-yl)benzyl)amino)pentyl)-N,4-dimethylbenzamide] | 6120 nM | 7.16 nM | 93.7 nM | 12.1% |
| COc1ccc(C(=O)N2CC3(CCN(Cc4ccc(-c5cc6c(-c7cc(F)cc(NC(=O)c8ccc(C(C)(C)O)cc8F)c7C)ncnc6[nH]5)cc4)CC3)C2)cc1N1CCC(=O)NC1=O [Compound 32] | 7440 nM | 6.31 nM | 34.2 nM | 15.4% |
| COc1ccc(C(=O)N2CCC(C(=O)N3CCN(Cc4ccc(-c5cc6c(-c7cc(F)cc(NC(=O)c8ccc(C(C)(C)O)cc8F)c7C)ncnc6[nH]5)cc4)CC3)CC2)cc1N1CCC(=O)NC1=O [Compound 33, N-(3-(6-(4-((4-(1-(3-(2,4-dioxotetrahydropyrimidin-1(2H)-yl)-4-methoxybenzoyl)piperidine-4-carbonyl)piperazin-1-yl)methyl)phenyl)-7H-pyrrolo[2,3-d]pyrimidin-4-yl)-5-fluoro-2-methylphenyl)-2-fluoro-4-(2-hydroxypropan-2-yl)benzamide] | 4280 nM | 3.97 nM | 22.2 nM | 5.9% |
| COc1ccc(C(=O)NCCN2CCC3(CC2)CCN(Cc2ccc(-c4cc5c(-c6cc(F)cc(NC(=O)c7ccc(C(C)(C)O)cc7F)c6C)ncnc5[nH]4)cc2)C3)cc1N1CCC(=O)NC1=O [Compound 35, N-(3-(6-(4-((8-(2-(3-(2,4-Dioxotetrahydropyrimidin-1(2H)-yl)-4-methoxybenzamido)ethyl)-2,8-diazaspiro[4.5]decan-2-yl)methyl)phenyl)-7H-pyrrolo[2,3-d]pyrimidin-4-yl)-5-fluoro-2-methylphenyl)-2-fluoro-4-(2-hydroxypropan-2-yl)benzamide] | 9160 nM | 3.46 nM | 61.1 nM | 7.6% |
| COc1ccc(C(=O)N2CCN(CCNCCCCOc3ccc(-c4cc5c(-c6cc(F)cc(NC(=O)c7ccc(C(C)(C)O)cc7F)c6C)ncnc5[nH]4)cc3)CC2)cc1N1CCC(=O)NC1=O [Compound 36, N-(3-(6-(4-(4-((2-(4-(3-(2,4-dioxotetrahydropyrimidin-1(2H)-yl)-4-methoxybenzoyl)piperazin-1-yl)ethyl)amino)butoxyl)phenyl)-7H-pyrrolo[2,3-d]pyrimidin-4-yl)-5-fluoro-2-methylphenyl)-2-fluoro-4-(2-hydroxypropan-2-yl)benzamide] | > 10000 nM | 2.94 nM | 37 nM | 2.4% |

Source: patent US12441733B2, “Substituted 2,4-dioxotetrahydropyrimidines as intermediates in the synthesis of bruton's tyrosine kinase inhibitors” (Novartis AG, priority 2018, dated 2025)
